The values below come from patent US6013628A, “Method for treating conditions of the eye using polypeptides” (Regents of the University of Minnesota, priority 1995, dated 2000).

No end group written: not given here.

For series [1] the following is noted: 3H-heparin; cited from earlier work.
For series [2], the system named is proliferative vitreoretinopathy in rabbits. The experiment in a line: Rabbit model of experimental proliferative vitreoretinopathy (intravitreal fibroblast injection). The class given is in vivo. As for the experimental part:
The rabbit model for proliferative vitreoretinopathy is described in Thresher et al., Graefe's Arch. Clin. Exp. Ophthalmol., 221, 192-198 (1984). Adult Dutch Belted rabbits of both sexes were used in the study. All animals were treated according to ARVO Animal Use Guidelines. All eyes were examined prior to initiation of a study and only clinically normal animals were used.
The rabbits were anesthetized using an intramuscular injection of a mix of ketamine (30 mg/kg) and xylazine (5 mg/kg). Pupils were dilated with Mydriacyl (Tropicamide) 1% and Neosynephrine 2.5% topical drops. Topical conjunctival anesthesia was provided with Proparacaine […] drops. All procedures were performed in an approved animal surgical facility. […] This site was used for subsequent intraocular injections, preventing iatrogenic retinal tears at the injection site. An intravitreal injection of 0.4 cc millipore-filtered 100% perfluoropropane gas was administered to produce a gas compression vitrectomy. Once the expansile gas bubble had absorbed, 5-10×10^4 dermal rabbit fibroblasts with or without 200 μg of polypeptide (injection volume-0.1 cc) were injected through a 27 gauge needle into the vitreous cavity. Under indirect ophthalmoscopic visualization, the tip of the needle was placed over the optic nerve head and the cells were injected in this location.
The animals were then observed for the development of proliferative vitreoretinopathy. The final stage of retinal detachment was scored from 0 to 7 using the standard grading scale shown below (see Hida et al., Graefe's Arch. Clin. Exp. Ophthalmol., 225, 1763-1769 (1991)).
Retinal photographs were taken with a wide field fundus camera (Canon) to document the final stage of retinal detachment. Animals were sacrificed while under deep anesthesia with an intravenous injection of 1 cc of euthanasia solution. The eyes were then immediately enucleated, fixed in 10% formalin, paraffin embedded, sectioned at 7 microns, and stained with hematoxylin and eosin for histology.
Three weeks following peripheral retinal cryopexy and gas compression vitrectomy, rabbit fibroblasts incubated for 1 hr with 200 ug of laminin polypeptide R37, type IV collagen polypeptide Hep-II, or BSS (balanced saline solution; control) were injected intravitreally. One eye of each rabbit received polypeptide incubated fibroblasts and the other eye received the control cells. Eyes were examined every three days, and the degree of retinal detachment was graded on the standard scale described above.

The test system of a further series is rabbit eye. The experiment in a line: Intravitreal polypeptide toxicity in rabbit eye (ERG, clinical observations, histology). The series is classed as in vivo. Here is the method: The toxicity of the polypeptides was determined by three techniques:
ERG. Electroretinograms (ERG) were carried out as a functional indicator of toxicity of a polypeptide treatment. Polypeptides were injected at 200 ug and 400 ug (twice the dose that inhibited proliferative vitreoretinopathy), and ERG measurements were performed three times in each eye at various times post-injection (1 hr to 6 weeks).
Clinical observations. Observation by indirect ophthalmoscopy and slit lamp examination were performed to probe for evidence of toxicity.
Histology. Following ERG and clinical observations, the eyes were immediately enucleated, fixed in 10% formalin, paraffin embedded, sectioned at 7 microns, and stained with hematoxylin and eosin.

For series [3], the system named is rabbit dermal fibroblasts. In words: Fibroblast-mediated collagen gel contraction (shrinkage) assay. The series is classed as cell-based. The text has this: As indicated above, proliferative vitreoretinopathy is the result of the proliferation and migration of fibroblasts, retinal pigment epithelial cells, and glial cells, and their organization into vitreous strands and epiretinal membranes. The vitreous strands and epiretinal membranes can contract, resulting in traction retinal detachment. The ability of rabbit dermal fibroblasts to cause contraction was examined in the collagen gel shrinkage model, which serves as an in vitro model of proliferative vitreoretinopathy (see Verdoon et al., Arch. Ophthalmol., 104, 1216-1219 (1986)). The ability of synthetic polypeptides derived from ECM molecules to inhibit contraction in the collagen gel shrinkage model using rabbit fibroblasts was also examined.
Fifty thousand rabbit dermal fibroblasts were suspended in 250 μl of fibroblast assay medium and mixed with 250 μl of Vitrogen and dispensed into the wells of a 48-well plate. The cells were preincubated with the desired polypeptide concentration (25, 50, 100, or 200 ug/ml) for one hour at 37° C. before mixing with the Vitrogen. Gelling occurred within 20 minutes after transfer of the mix of cell suspension and Vitrogen into an incubator at 37° C. with 5% CO2. The gels were overlaid with 250 μl of growth medium. All conditions were tested in duplicate wells. After 24 hours, the gels were detached from the sides of the wells by sweeping with a 27-gauge needle inserted at the interface between the plastic well and the gel (FIGS. 6-8).
Contraction of collagen gels was quantitated by use of planimetry. The gels were observed daily over the seven day period following detachment for evidence of contraction. The plates were photographed at the end of the seven days to record the amount of contraction. The contraction was measured by recording the area of each gel in each well off the photograph using a computer scanner. The area of the gels with polypeptide was compared to the area of the gels without the polypeptide. Planimetry is a two-dimensional measurement. […] The planimetry measurements accordingly underestimate the degree of contraction that actually occurred.
The collagen gels were cast with or without the incorporation of 25 ug/ml of fibronectin. […] These controls using deactivated cells indicate that cell growth and proliferation are required to effect gel shrinkage.

As for “LAGSCLARFSTM [Hep-II, Leu-Ala-Gly-Ser-Cys-Leu-Ala-Arg-Phe-Ser-Thr-Met]”, the Heparin binding result in series [1] is recorded as “reported to bind heparin”. Moreover, in series [2] (200 ug with 100,000 fibroblasts, seven weeks after fibroblast injection), the “Retina appearance (stage 0-7 scale), fundus photograph” value is given as “normal (Stage 0)”. In series [2] (Expt I: 200 ug, 50,000 cells, RD staged at day 21, control 66%), the “# Detached Retinas (%)” value is listed as 17%. Further, the “# Detached Retinas” value in series [2] (Expt I: 200 ug, 50,000 cells, RD staged at day 21, total 6 eyes, control 4 of 6) came to 1. Besides, in series [2] (fibroblasts incubated 1 hr with 200 ug polypeptide, intravitreal), the “Degree of retinal detachment” value is recorded as “inhibited the degree of retinal detachment”. The Fundus appearance result in the series on rabbit eye (6 weeks after injection of 200 ug in 0.1 ml) is “indistinguishable from the control eye”. Besides, in the series on rabbit eye (intravitreal injection of 200 ug or 400 ug), the “Toxic effects by clinical observations, histopathology or ERG” value is recorded as “No toxic effects”. In addition, the “% Contraction” value in series [3] (200 ug type IV collagen peptide, cells preincubated 1 hr, gel surface area by planimetry at day 7, no peptide 36%) was found to be 3%. Further, in series [3] (gels cast with and without fibronectin), the “Effect on fibroblast-mediated collagen gel contraction” value was “most potent inhibitory effects on contraction”.
